Data: patent US10231907B2, “Compositions for improving the health and appearance of skin” (Algenist Holdings, Inc., priority 2006, dated 2019)

Columns and labels:
human PMN leukocytes = assay: PMN migration (chemotaxis chamber, FMLP); format: cell-based; settings: 2 ug/ml, mean ± SD
Experimental: Microalgal polysaccharide materials were tested for their ability to influence the migration of polymorphonucelar (PMN) leukocytes in response to chemotractant substances. Leukocyte migration is essential for leukocyte accumulation at sites of inflammation. During the inflammatory response, leukocytes migrate towards the source of a chemotractant substance in a process called chemotaxis. In vitro methods to study chemotaxis often use a membrane based approach, where a chemoattractant is placed on one side of a membrane and PMN leukocytes are placed on the other. Chemotaxis is then measured by quantifying the number of leukocytes which then migrate through the filter towards the chemotractant substance.
For this study, human PMN leukocytes were isolated via density centrifugation from freshly drawn blood. The PMN cells were loaded with a Calcein AM, a fluorescent dye. […] The chemotaxis chamber was be incubated and at the end of the incubation period the fluorescence of the bottom wells was read and used as an index of PMN migration. […]
Heparinized whole blood (20-30 ml) was collected from a healthy human donor, layered over a density gradient (Histopaque 1077 and Histopaque 1119) and centrifuged at 400 g for 30 min. […] After the incubation, the PMN cells were washed twice with PBS, counted and resuspended in RPMI-FCS at 1-5×10^6 cells/ml. […]

elastase = assay: Anti-elastase assay (fibroblast lysate, STANA substrate); format: biochemical, human; settings: 100 μM
Experimental: Human dermal fibroblasts were cultured and used as a source of the elastase enzyme. This enzyme was be partially purified from the fibroblasts by lysing the cells in an elastase buffer and retaining the soluble portion of the lysate. Portions of this fibroblast lysate were then be incubated with test materials a synthetic elastase substrate, Suc-(Ala3)-p-Nitroaniline (STANA). Elastase acts upon this substrate to release p-nitroaniline, which is detected with a spectrophotometer by measuring the absorbance at a wavelength of 405 nm. An inhibition of the elastase enzyme is identified by a decrease in the amount of released p-nitroaniline when compared to uninhibited enzyme.
Test material BM was supplied as a powder. 100 mg of BM was combined with either 5 ml of ethanol or 5 ml of ultrapure water in 15 ml centrifuge tubes. […]
After measuring the protein concentration of the lysate, a small sample was obtained and the elastase activity of the lysate was determined at 100%, 50% and 25% concentrations using 2× elastase buffer to make the dilutions. […] After the incubation the well plate was read at 405 nm using a microplate reader. The mean absorbance for each concentration of the lysate was plotted versus its respective concentration. […]

Compound	Percent of Maximal Migration (human PMN leukocytes) [%]	Percent Inhibition (elastase) [%]
C[C@@H]1[C@H](O)[C@@H](C)/C=C/C=C/C=C/C=C/C=C/C=C/C=C/[C@H](O[C@@H]2O[C@H](C)[C@@H](O)[C@H](N)[C@@H]2O)C[C@@H]2O[C@](O)(C[C@@H](O)C[C@@H](O)[C@H](O)CC[C@@H](O)C[C@@H](O)CC(=O)O[C@H]1C)C[C@H](O)[C@H]2C(=O)O [Amphotericin B]	9.4 ± 0.6	
CC(C)C[C@H](NP(=O)(O)O[C@@H]1O[C@@H](C)[C@H](O)[C@@H](O)[C@H]1O)C(=O)N[C@@H](Cc1c[nH]c2ccccc12)C(=O)O [Phosphoramidon]		94
